Laboratory results: patent US11117900B2 (Vertex Pharmaceuticals Incorporated, priority 2012, dated 2021)

Tested on: HCT116 colorectal cancer cells
Assay: Cisplatin sensitization assay (96 h MTS cell viability);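 note: compound concentration needed to lower the IC50 of Cisplatin alone by a set fold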
Assay type: cell-based
Conditions: Cisplatin sensitization value
In short: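 The MTS viability read, after 1 h with reagent, followed 96 h of co-treatment at 37° C. in 5% CO2. Both compound and cisplatin were titrated 2-fold from a 10 μM top final concentration in a complete concentration matrix on HCT116 cells. Scores +++/++/+ reflect cisplatin sensitization value ranges.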

Compound	Cisplatin Sensitization Assay
CN1CCN(CC2CCN(c3c(F)cncc3NC(=O)c3c(N)nn4cc(F)cnc34)CC2)CC1 [I-N-150, 2-amino-6-fluoro-N-(5-fluoro-4-(4-((4-methylpiperazin-1-yl)methyl)piperidin-1-yl)pyridin-3-yl)pyrazolo[1,5-a]pyrimidine-3-carboxamide]	+++ (Compounds with a Cisplatin sensitization value of <0.02 μM are marked with “+++.”)
CN1CCN(C2CCN(c3c(F)cncc3NC(=O)c3c(N)nn4cc(F)cnc34)CC2)C(=O)C1 [I-N-151, 2-amino-6-fluoro-N-(5-fluoro-4-(4-(4-methyl-2-oxopiperazin-1-yl)piperidin-1-yl)pyridin-3-yl)pyrazolo[1,5-a]pyrimidine-3-carboxamide]	+ (Compounds with a Cisplatin sensitization value >0.2 μM but <5 μM are marked with “+.”)
Nc1nn2cc(F)cnc2c1C(=O)Nc1cnccc1N1CCCCC1 [I-N-152, 2-amino-6-fluoro-N-(4-(piperidin-1-yl)pyridin-3-yl)pyrazolo[1,5-a]pyrimidine-3-carboxamide]	+++ (Compounds with a Cisplatin sensitization value of <0.02 μM are marked with “+++.”)
CN(C)CC(=O)N1CCN(c2c(F)cncc2NC(=O)c2c(N)nn3cc(F)cnc23)CC1 [I-N-153, 2-amino-N-(4-(4-(2-(dimethylamino)acetyl)piperazin-1-yl)-5-fluoropyridin-3-yl)-6-fluoropyrazolo[1,5-a]pyrimidine-3-carboxamide]	++ (Compounds with a Cisplatin sensitization value >0.02 μM but <0.2 μM are marked with “++.”)
CN1CCC(OC2CCN(c3ccncc3NC(=O)c3c(N)nn4cc(F)cnc34)CC2)CC1 [I-N-154, 2-amino-6-fluoro-N-(4-(4-((1-methylpiperidin-4-yl)oxy)piperidin-1-yl)pyridin-3-yl)pyrazolo[1,5-a]pyrimidine-3-carboxamide]	+++ (Compounds with a Cisplatin sensitization value of <0.02 μM are marked with “+++.”)
Nc1nn2cc(F)cnc2c1C(=O)Nc1cncc(F)c1N1CCC(S(=O)(=O)N2CCOCC2)CC1 [I-N-155, 2-amino-6-fluoro-N-(5-fluoro-4-(4-(morpholinosulfonyl)piperidin-1-yl)pyridin-3-yl)pyrazolo[1,5-a]pyrimidine-3-carboxamide]	+++ (Compounds with a Cisplatin sensitization value of <0.02 μM are marked with “+++.”)
CN1CCC(C(=O)N2CCN(c3c(F)cncc3NC(=O)c3c(N)nn4cc(F)cnc34)CC2)C1 (stereo not drawn) [I-N-156, 2-amino-6-fluoro-N-(5-fluoro-4-(4-(1-methylpyrrolidine-3-carbonyl)piperazin-1-yl)pyridin-3-yl)pyrazolo[1,5-a]pyrimidine-3-carboxamide]	+++ (Compounds with a Cisplatin sensitization value of <0.02 μM are marked with “+++.”)
CN1CCC[C@H]1C(=O)N1CCN(c2c(F)cncc2NC(=O)c2c(N)nn3cc(F)cnc23)CC1 [I-N-157, (S)-2-amino-6-fluoro-N-(5-fluoro-4-(4-(1-methylpyrrolidine-2-carbonyl)piperazin-1-yl)pyridin-3-yl)pyrazolo[1,5-a]pyrimidine-3-carboxamide]	++ (Compounds with a Cisplatin sensitization value >0.02 μM but <0.2 μM are marked with “++.”)
Nc1nn2cc(F)cnc2c1C(=O)Nc1cncc(F)c1N1CCN(S(=O)(=O)C2CCOCC2)CC1 [I-N-158, 2-amino-6-fluoro-N-(5-fluoro-4-(4-((tetrahydro-2H-pyran-4-yl)sulfonyl)piperazin-1-yl)pyridin-3-yl)pyrazolo[1,5-a]pyrimidine-3-carboxamide]	+++ (Compounds with a Cisplatin sensitization value of <0.02 μM are marked with “+++.”)
Nc1nn2cc(F)cnc2c1C(=O)Nc1cncc(F)c1N1CCN(S(=O)(=O)C2CC2)CC1 [I-N-159, 2-amino-N-(4-(4-(cyclopropylsulfonyl)piperazin-1-yl)-5-fluoropyridin-3-yl)-6-fluoropyrazolo[1,5-a]pyrimidine-3-carboxamide]	+++ (Compounds with a Cisplatin sensitization value of <0.02 μM are marked with “+++.”)
Nc1nn2cc(F)cnc2c1C(=O)Nc1cncc(F)c1N1CCN(C(=O)CN2CCC2)CC1 [I-N-160, 2-amino-N-(4-(4-(2-(azetidin-1-yl)acetyl)piperazin-1-yl)-5-fluoropyridin-3-yl)-6-fluoropyrazolo[1,5-a]pyrimidine-3-carboxamide]	+++ (Compounds with a Cisplatin sensitization value of <0.02 μM are marked with “+++.”)
Cc1ncn(-c2ccncc2NC(=O)c2c(N)nn3cc(F)cnc23)n1 [I-N-161, 2-amino-6-fluoro-N-(4-(3-methyl-1H-1,2,4-triazol-1-yl)pyridin-3-yl)pyrazolo[1,5-a]pyrimidine-3-carboxamide]	+ (Compounds with a Cisplatin sensitization value >0.2 μM but <5 μM are marked with “+.”)
Cc1ncnn1-c1ccncc1NC(=O)c1c(N)nn2cc(F)cnc12 [I-N-162, 2-amino-6-fluoro-N-(4-(5-methyl-1H-1,2,4-triazol-1-yl)pyridin-3-yl)pyrazolo[1,5-a]pyrimidine-3-carboxamide]	++ (Compounds with a Cisplatin sensitization value >0.02 μM but <0.2 μM are marked with “++.”)
Nc1nn2cc(F)cnc2c1C(=O)Nc1cncc(F)c1N1CCN2C(=O)CCC2C1 (stereo not drawn) [I-N-163, 2-amino-6-fluoro-N-(5-fluoro-4-(6-oxohexahydropyrrolo[1,2-a]pyrazin-2(1H)-yl)pyridin-3-yl)pyrazolo[1,5-a]pyrimidine-3-carboxamide]	+++ (Compounds with a Cisplatin sensitization value of <0.02 μM are marked with “+++.”)
CN1CC(OC2CCN(c3ccncc3NC(=O)c3c(N)nn4cc(F)cnc34)CC2)C1 [I-N-164, 2-amino-6-fluoro-N-(4-(4-((1-methylazetidin-3-yl)oxy)piperidin-1-yl)pyridin-3-yl)pyrazolo[1,5-a]pyrimidine-3-carboxamide]	+++ (Compounds with a Cisplatin sensitization value of <0.02 μM are marked with “+++.”)
CS(=O)(=O)C1CCN(c2c(F)cncc2NC(=O)c2c(N)nn3cc(F)cnc23)CC1 [I-N-165, 2-amino-6-fluoro-N-(5-fluoro-4-(4-(methylsulfonyl)piperidin-1-yl)pyridin-3-yl)pyrazolo[1,5-a]pyrimidine-3-carboxamide]	+++ (Compounds with a Cisplatin sensitization value of <0.02 μM are marked with “+++.”)
CN1CCN(S(=O)(=O)C2CCN(c3c(F)cncc3NC(=O)c3c(N)nn4cc(F)cnc34)CC2)CC1 [I-N-166, 2-amino-6-fluoro-N-(5-fluoro-4-(4-((4-methylpiperazin-1-yl)sulfonyl)piperidin-1-yl)pyridin-3-yl)pyrazolo[1,5-a]pyrimidine-3-carboxamide]	+++ (Compounds with a Cisplatin sensitization value of <0.02 μM are marked with “+++.”)
Nc1nn2cc(F)cnc2c1C(=O)Nc1cncc(F)c1N1CCC(OCCN2CCCC2)CC1 [I-N-167, 2-amino-6-fluoro-N-(5-fluoro-4-(4-(2-(pyrrolidin-1-yl)ethoxy)piperidin-1-yl)pyridin-3-yl)pyrazolo[1,5-a]pyrimidine-3-carboxamide]	+++ (Compounds with a Cisplatin sensitization value of <0.02 μM are marked with “+++.”)
